Assays:
Assay in all cases: Caliper, Mobility shift assay off-chip
AURKC (human) = AURKC (human) (UniProt Q9UQB9)
CDC42BPB (human) = CDC42BPB (human) (UniProt Q9Y5S2)
CDK5 (human) = CDK5 (human) (UniProt Q00535)
DAPK1 (human) = DAPK1 (human) (UniProt P53355)
DYRK2 (human) = DYRK2 (human) (UniProt Q92630)
EPHA3 (human) = EPHA3 (human) (UniProt P29320)
EPHA5 (human) = EPHA5 (human) (UniProt P54756)
EPHA7 (human) = EPHA7 (human) (UniProt Q15375)
FGFR4 (human) = FGFR4 (human) (UniProt P22455)
GSK3A (human) = GSK3A (human) (UniProt P49840)
GSK3A (human), sequence (P49840 whole entry, looked up): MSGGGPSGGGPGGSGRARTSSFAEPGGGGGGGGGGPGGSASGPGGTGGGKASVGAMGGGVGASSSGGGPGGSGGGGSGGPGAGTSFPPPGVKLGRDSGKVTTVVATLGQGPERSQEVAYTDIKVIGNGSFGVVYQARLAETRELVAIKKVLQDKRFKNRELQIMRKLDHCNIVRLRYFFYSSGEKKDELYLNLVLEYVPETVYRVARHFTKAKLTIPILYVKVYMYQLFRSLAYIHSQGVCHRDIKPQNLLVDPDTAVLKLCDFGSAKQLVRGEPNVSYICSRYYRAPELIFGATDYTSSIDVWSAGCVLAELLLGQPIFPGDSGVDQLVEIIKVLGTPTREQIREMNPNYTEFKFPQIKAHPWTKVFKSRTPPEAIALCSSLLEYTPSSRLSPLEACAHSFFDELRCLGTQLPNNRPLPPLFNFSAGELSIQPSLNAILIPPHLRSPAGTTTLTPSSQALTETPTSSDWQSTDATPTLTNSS

MAP4K2 (human) = MAP4K2 (human) (UniProt Q12851)
MAPK1 (human) = MAPK1 (human) (UniProt P28482)
MAPK13 (human) = MAPK13 (human) (UniProt O15264)
MST4 (human) = MST4 (human) (UniProt Q9P289)
NEK9 (human) = NEK9 (human) (UniProt Q8TD19)
NTRK1 (human) = NTRK1 (human) (UniProt P04629)
PAK1 (human) = PAK1 (human) (UniProt Q13153)
PAK6 (human) = PAK6 (human) (UniProt Q9NQU5)
PDGFRB (human) = PDGFRB (human) (UniProt P09619)
PDK4 (human) = PDK4 (human) (UniProt Q16654)
PDK4 (human), sequence (Q16654 whole entry, looked up): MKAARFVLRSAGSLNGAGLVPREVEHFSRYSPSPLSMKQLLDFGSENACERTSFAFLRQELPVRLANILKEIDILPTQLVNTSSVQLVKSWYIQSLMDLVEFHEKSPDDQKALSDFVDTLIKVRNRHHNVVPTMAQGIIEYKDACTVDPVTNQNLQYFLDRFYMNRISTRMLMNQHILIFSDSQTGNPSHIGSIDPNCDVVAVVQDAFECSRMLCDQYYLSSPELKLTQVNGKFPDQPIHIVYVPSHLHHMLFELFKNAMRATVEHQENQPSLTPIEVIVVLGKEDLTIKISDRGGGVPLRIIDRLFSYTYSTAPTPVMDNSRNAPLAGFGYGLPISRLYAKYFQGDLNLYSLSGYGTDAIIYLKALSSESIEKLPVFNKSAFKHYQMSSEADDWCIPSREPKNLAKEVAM

PIK3CA PIK3R1 (human) = PIK3CA PIK3R1 (human) (UniProt P27986+P42336)
PRKCA (human) = PRKCA (human) (UniProt P17252)
PRKCD (human) = PRKCD (human) (UniProt Q05655)
PRKG2 (human) = PRKG2 (human) (UniProt Q13237)
PTK2 (human) = PTK2 (human) (UniProt Q05397)
SIK1 (human) = SIK1 (human) (UniProt P57059)
SIK1 (human), sequence (P57059 whole entry, looked up): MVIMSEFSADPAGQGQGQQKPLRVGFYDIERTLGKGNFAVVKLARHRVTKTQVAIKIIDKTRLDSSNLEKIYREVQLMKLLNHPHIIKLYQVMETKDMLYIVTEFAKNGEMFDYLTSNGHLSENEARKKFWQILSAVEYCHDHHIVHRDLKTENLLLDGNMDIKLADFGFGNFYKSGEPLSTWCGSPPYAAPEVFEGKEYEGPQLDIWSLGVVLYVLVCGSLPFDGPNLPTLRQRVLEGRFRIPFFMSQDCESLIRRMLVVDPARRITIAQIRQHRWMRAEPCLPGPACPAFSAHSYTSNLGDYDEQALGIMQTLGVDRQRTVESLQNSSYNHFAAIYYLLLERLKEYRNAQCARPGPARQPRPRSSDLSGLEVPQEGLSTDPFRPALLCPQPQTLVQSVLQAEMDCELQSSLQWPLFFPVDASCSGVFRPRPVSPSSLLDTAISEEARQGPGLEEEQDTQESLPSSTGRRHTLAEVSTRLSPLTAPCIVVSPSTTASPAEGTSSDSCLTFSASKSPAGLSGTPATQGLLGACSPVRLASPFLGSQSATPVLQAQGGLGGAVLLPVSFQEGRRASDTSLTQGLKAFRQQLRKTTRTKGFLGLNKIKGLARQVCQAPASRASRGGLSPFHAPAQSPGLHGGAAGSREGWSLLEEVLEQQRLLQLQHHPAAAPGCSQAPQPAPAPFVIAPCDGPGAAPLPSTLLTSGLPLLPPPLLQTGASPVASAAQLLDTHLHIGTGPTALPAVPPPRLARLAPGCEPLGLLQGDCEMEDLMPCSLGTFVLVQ

SRPK2 (human) = SRPK2 (human) (UniProt P78362)
STK10 (human) = STK10 (human) (UniProt O94804)
STK38L (human) = STK38L (human) (UniProt Q9Y2H1)
STK38L (human), sequence (Q9Y2H1 whole entry, looked up): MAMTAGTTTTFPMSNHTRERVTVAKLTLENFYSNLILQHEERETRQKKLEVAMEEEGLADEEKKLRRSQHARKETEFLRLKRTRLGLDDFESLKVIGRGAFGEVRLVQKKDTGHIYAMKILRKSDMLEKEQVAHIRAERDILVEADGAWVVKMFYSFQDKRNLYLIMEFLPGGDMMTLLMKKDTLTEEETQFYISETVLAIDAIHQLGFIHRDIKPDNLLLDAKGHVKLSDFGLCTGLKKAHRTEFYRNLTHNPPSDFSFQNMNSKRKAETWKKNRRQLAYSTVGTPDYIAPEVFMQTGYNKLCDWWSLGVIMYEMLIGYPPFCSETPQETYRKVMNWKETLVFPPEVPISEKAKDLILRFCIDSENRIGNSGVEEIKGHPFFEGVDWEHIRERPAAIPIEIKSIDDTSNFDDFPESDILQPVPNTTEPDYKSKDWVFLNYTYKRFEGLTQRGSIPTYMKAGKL

WNK3 (human) = WNK3 (human) (UniProt Q9BYP7)
ZAP70 (human) = ZAP70 (human) (UniProt P43403)
FES (human) = FES (human) (UniProt P07332)
GSK3B (human) = GSK3B (human) (UniProt P49841)
IGF1R (human) = IGF1R (human) (UniProt P08069)

CDK5 (human), sequence (Q00535 whole entry, looked up): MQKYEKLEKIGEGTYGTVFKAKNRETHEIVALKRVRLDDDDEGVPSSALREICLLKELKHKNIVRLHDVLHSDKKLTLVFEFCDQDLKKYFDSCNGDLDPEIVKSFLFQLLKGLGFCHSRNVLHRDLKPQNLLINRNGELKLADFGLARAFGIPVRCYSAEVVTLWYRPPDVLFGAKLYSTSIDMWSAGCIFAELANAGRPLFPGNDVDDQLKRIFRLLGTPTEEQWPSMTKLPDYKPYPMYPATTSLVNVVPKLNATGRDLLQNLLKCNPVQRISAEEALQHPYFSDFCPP
DAPK1 (human), sequence (P53355 whole entry, looked up): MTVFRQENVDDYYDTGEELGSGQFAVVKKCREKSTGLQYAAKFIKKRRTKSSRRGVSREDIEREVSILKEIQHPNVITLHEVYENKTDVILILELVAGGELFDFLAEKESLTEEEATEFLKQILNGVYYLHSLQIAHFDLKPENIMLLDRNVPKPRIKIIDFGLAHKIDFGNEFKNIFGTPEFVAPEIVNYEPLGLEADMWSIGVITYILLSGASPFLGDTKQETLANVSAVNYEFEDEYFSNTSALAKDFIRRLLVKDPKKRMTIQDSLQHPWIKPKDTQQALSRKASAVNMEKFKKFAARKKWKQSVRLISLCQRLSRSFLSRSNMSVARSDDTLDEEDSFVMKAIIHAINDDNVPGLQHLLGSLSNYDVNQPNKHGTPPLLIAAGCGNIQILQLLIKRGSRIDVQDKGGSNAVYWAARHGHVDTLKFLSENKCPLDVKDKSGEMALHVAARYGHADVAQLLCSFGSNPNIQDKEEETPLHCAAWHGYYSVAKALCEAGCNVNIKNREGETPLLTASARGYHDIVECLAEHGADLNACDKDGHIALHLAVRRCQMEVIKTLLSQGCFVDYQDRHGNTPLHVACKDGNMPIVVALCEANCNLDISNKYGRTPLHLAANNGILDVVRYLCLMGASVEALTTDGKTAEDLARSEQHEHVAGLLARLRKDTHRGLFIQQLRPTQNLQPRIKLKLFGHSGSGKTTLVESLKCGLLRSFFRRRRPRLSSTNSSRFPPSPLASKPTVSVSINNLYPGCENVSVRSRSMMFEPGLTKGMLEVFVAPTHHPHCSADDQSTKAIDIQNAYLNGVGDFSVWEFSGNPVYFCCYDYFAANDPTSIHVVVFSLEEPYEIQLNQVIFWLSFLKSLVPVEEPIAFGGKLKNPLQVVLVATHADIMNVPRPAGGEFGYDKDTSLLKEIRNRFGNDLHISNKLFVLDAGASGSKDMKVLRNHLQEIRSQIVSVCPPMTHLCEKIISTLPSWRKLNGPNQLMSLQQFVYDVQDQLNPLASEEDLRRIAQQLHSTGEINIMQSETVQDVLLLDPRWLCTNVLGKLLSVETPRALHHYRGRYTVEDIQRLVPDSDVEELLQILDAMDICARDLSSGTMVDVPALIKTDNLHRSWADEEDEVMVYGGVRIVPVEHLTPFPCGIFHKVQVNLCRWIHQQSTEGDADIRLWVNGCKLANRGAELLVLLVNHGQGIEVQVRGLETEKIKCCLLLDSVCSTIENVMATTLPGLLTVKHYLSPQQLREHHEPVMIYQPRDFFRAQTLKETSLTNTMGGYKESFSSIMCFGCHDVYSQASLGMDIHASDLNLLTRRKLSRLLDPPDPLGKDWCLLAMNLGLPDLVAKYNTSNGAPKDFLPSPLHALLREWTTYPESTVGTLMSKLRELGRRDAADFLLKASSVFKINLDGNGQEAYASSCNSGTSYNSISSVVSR
EPHA3 (human), sequence (P29320 whole entry, looked up): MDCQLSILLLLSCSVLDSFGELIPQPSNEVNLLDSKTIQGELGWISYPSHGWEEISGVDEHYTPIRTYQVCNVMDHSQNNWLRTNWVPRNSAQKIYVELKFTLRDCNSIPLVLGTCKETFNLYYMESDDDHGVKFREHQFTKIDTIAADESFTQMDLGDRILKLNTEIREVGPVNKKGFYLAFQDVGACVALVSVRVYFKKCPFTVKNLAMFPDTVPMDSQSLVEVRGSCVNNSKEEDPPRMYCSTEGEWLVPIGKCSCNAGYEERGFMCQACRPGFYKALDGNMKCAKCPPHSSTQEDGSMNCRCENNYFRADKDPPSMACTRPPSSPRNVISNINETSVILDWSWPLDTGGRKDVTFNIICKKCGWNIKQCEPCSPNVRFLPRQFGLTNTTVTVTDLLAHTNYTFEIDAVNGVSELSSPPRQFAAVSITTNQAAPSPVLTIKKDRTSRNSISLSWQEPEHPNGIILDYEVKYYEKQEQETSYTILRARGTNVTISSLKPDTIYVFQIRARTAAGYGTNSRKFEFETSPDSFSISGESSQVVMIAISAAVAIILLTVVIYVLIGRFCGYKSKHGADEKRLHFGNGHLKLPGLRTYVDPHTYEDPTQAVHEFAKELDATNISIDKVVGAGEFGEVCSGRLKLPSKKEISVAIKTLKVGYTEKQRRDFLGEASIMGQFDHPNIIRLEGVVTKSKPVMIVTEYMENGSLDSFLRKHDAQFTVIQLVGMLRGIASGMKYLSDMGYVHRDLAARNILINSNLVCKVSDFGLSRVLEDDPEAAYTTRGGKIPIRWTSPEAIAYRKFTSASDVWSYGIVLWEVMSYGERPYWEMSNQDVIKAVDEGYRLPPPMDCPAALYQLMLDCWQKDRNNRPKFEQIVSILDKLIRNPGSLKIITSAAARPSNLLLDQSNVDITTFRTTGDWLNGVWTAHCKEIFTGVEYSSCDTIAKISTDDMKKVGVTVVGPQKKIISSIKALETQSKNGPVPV

In the case of `Cc1ccc(Nc2nccc(N(C)c3ccc4c(C)n(C)nc4c3)n2)cc1S(N)(=O)=O`, the inhibition (AURKC (human); compound 0.02 µM) is reported as -0.4%, the inhibition (AURKC (human); compound 0.2 µM) is reported as 21.5% and the inhibition (CDC42BPB (human); compound 0.02 µM) is reported as 1.8%. The inhibition (CDC42BPB (human); compound 0.2 µM) was 2.9%, the inhibition (CDK5 (human); compound 0.02 µM) was -0.3% and the inhibition (CDK5 (human); compound 0.2 µM) was 0.9%. It also gave an inhibition (DAPK1 (human); compound 0.02 µM) of 6.5%, an inhibition (DAPK1 (human); compound 0.2 µM) of 6.7% and an inhibition (DYRK2 (human); compound 0.02 µM) of 0.6%. For the same compound, the inhibition (DYRK2 (human); compound 0.2 µM) was 4.1%, the inhibition (EPHA3 (human); compound 0.02 µM) was -4.8% and the inhibition (EPHA3 (human); compound 0.2 µM) was -4.4%. For the same compound, the inhibition (EPHA5 (human); compound 0.02 µM) was -2.7%, the inhibition (EPHA5 (human); compound 0.2 µM) was 4.7% and the inhibition (EPHA7 (human); compound 0.02 µM) was 0.1%. It also gave an inhibition (EPHA7 (human); compound 0.2 µM) of 1.7%, an inhibition (FGFR4 (human); compound 0.02 µM) of 0.7% and an inhibition (FGFR4 (human); compound 0.2 µM) of 29.7%. For the same compound, the inhibition (GSK3A (human); compound 0.02 µM) was 1.8%, the inhibition (GSK3A (human); compound 0.2 µM) was 5.1% and the inhibition (MAP4K2 (human); compound 0.02 µM) was 2.6%. It also gave an inhibition (MAP4K2 (human); compound 0.2 µM) of 28.7%, an inhibition (MAPK1 (human); compound 0.02 µM) of -10.8% and an inhibition (MAPK1 (human); compound 0.2 µM) of -6.6%. The inhibition (MAPK13 (human); compound 0.02 µM) was -3.6%, the inhibition (MAPK13 (human); compound 0.2 µM) was -3.8% and the inhibition (MST4 (human); compound 0.02 µM) was -9.1%. For the same compound, the inhibition (MST4 (human); compound 0.2 µM) was -4%, the inhibition (NEK9 (human); compound 0.02 µM) was -3.7% and the inhibition (NEK9 (human); compound 0.2 µM) was 1.4%. For the same compound, the inhibition (NTRK1 (human); compound 0.02 µM) was 7%, the inhibition (NTRK1 (human); compound 0.2 µM) was 16.7% and the inhibition (PAK1 (human); compound 0.02 µM) was -3.6%. For the same compound, the inhibition (PAK1 (human); compound 0.2 µM) was 1%, the inhibition (PAK6 (human); compound 0.02 µM) was -5.8% and the inhibition (PAK6 (human); compound 0.2 µM) was -5.8%. The inhibition (PDGFRB (human); compound 0.02 µM) was 36.7%, the inhibition (PDGFRB (human); compound 0.2 µM) was 81.4% and the inhibition (PDK4 (human); compound 0.02 µM) was -0.5%. For the same compound, the inhibition (PDK4 (human); compound 0.2 µM) was 0.8%, the inhibition (PIK3CA PIK3R1 (human); compound 0.02 µM) was 64.2% and the inhibition (PIK3CA PIK3R1 (human); compound 0.2 µM) was 68.1%. For the same compound, the inhibition (PRKCA (human); compound 0.02 µM) was -0.8%, the inhibition (PRKCA (human); compound 0.2 µM) was -1% and the inhibition (PRKCD (human); compound 0.02 µM) was -1.6%. For the same compound, the inhibition (PRKCD (human); compound 0.2 µM) was -4.4%, the inhibition (PRKG2 (human); compound 0.02 µM) was -2.3% and the inhibition (PRKG2 (human); compound 0.2 µM) was -2.6%. For the same compound, the inhibition (PTK2 (human); compound 0.02 µM) was -2%, the inhibition (PTK2 (human); compound 0.2 µM) was 8.3% and the inhibition (SIK1 (human); compound 0.02 µM) was -3%. It also gave an inhibition (SIK1 (human); compound 0.2 µM) of 0%, an inhibition (SRPK2 (human); compound 0.02 µM) of -4.8% and an inhibition (SRPK2 (human); compound 0.2 µM) of -3.2%. The inhibition (STK10 (human); compound 0.02 µM) was 8.8%, the inhibition (STK10 (human); compound 0.2 µM) was 39.2% and the inhibition (STK38L (human); compound 0.02 µM) was -1.5%. For the same compound, the inhibition (STK38L (human); compound 0.2 µM) was 6.6%, the inhibition (WNK3 (human); compound 0.02 µM) was -0.8% and the inhibition (WNK3 (human); compound 0.2 µM) was 3.2%. For the same compound, the inhibition (ZAP70 (human); compound 0.02 µM) was 7% and the inhibition (ZAP70 (human); compound 0.2 µM) was 13.3%.
In the case of `CNC(=O)c1cc(Oc2ccc(NC(=O)Nc3ccc(Cl)c(C(F)(F)F)c3)cc2)ccn1`, the inhibition (AURKC (human); compound 0.02 µM) is reported as 0%, the inhibition (AURKC (human); compound 0.2 µM) is reported as 11.8% and the inhibition (CDC42BPB (human); compound 0.02 µM) is reported as -3.1%. It also gave an inhibition (CDC42BPB (human); compound 0.2 µM) of 0.8%, an inhibition (CDK5 (human); compound 0.02 µM) of -3.5% and an inhibition (CDK5 (human); compound 0.2 µM) of -3.6%. It also gave an inhibition (DAPK1 (human); compound 0.02 µM) of 0.7%, an inhibition (DAPK1 (human); compound 0.2 µM) of 1.1% and an inhibition (DYRK2 (human); compound 0.02 µM) of -7.8%. For the same compound, the inhibition (DYRK2 (human); compound 0.2 µM) was 6.1%, the inhibition (EPHA3 (human); compound 0.02 µM) was -2.6% and the inhibition (EPHA3 (human); compound 0.2 µM) was 17%. For the same compound, the inhibition (EPHA5 (human); compound 0.02 µM) was 6.1%, the inhibition (EPHA5 (human); compound 0.2 µM) was 38.8% and the inhibition (EPHA7 (human); compound 0.02 µM) was 2%. The inhibition (EPHA7 (human); compound 0.2 µM) was 26.5%, the inhibition (FES (human); compound 0.02 µM) was -3.2% and the inhibition (FES (human); compound 0.2 µM) was 7.2%. It also gave an inhibition (FGFR4 (human); compound 0.02 µM) of -7.4%, an inhibition (FGFR4 (human); compound 0.2 µM) of 8.8% and an inhibition (GSK3A (human); compound 0.02 µM) of -3.9%. For the same compound, the inhibition (GSK3A (human); compound 0.2 µM) was 6.8%, the inhibition (GSK3B (human); compound 0.02 µM) was -6.7% and the inhibition (GSK3B (human); compound 0.2 µM) was 2.9%. The inhibition (IGF1R (human); compound 0.02 µM) was -1.8%, the inhibition (IGF1R (human); compound 0.2 µM) was 5% and the inhibition (MAP4K2 (human); compound 0.02 µM) was 3.2%. For the same compound, the inhibition (MAP4K2 (human); compound 0.2 µM) was 11.5%, the inhibition (MAPK1 (human); compound 0.02 µM) was -3.9% and the inhibition (MAPK1 (human); compound 0.2 µM) was -4.1%. For the same compound, the inhibition (MAPK13 (human); compound 0.02 µM) was -3.5%, the inhibition (MAPK13 (human); compound 0.2 µM) was -0.7% and the inhibition (MST4 (human); compound 0.02 µM) was -5.7%. It also gave an inhibition (MST4 (human); compound 0.2 µM) of 0.1%, an inhibition (NEK9 (human); compound 0.02 µM) of -3.7% and an inhibition (NEK9 (human); compound 0.2 µM) of -5.9%. It also gave an inhibition (NTRK1 (human); compound 0.02 µM) of 7.9%, an inhibition (NTRK1 (human); compound 0.2 µM) of 37.2% and an inhibition (PAK1 (human); compound 0.02 µM) of -0.9%. For the same compound, the inhibition (PAK1 (human); compound 0.2 µM) was 1.1%, the inhibition (PAK6 (human); compound 0.02 µM) was -6.6% and the inhibition (PAK6 (human); compound 0.2 µM) was -32.1%. For the same compound, the inhibition (PDK4 (human); compound 0.02 µM) was 1.9%, the inhibition (PDK4 (human); compound 0.2 µM) was 3.4% and the inhibition (PRKCA (human); compound 0.02 µM) was 1.2%. For the same compound, the inhibition (PRKCA (human); compound 0.2 µM) was 12.2%, the inhibition (PRKCD (human); compound 0.02 µM) was -1.7% and the inhibition (PRKCD (human); compound 0.2 µM) was 11.7%. It also gave an inhibition (PRKG2 (human); compound 0.02 µM) of -4.4%, an inhibition (PRKG2 (human); compound 0.2 µM) of -0.6% and an inhibition (PTK2 (human); compound 0.02 µM) of -4.6%. For the same compound, the inhibition (PTK2 (human); compound 0.2 µM) was -3.4%, the inhibition (SIK1 (human); compound 0.02 µM) was -3.4% and the inhibition (SIK1 (human); compound 0.2 µM) was 7.3%. For the same compound, the inhibition (SRPK2 (human); compound 0.02 µM) was -5.7%, the inhibition (SRPK2 (human); compound 0.2 µM) was -6.5% and the inhibition (STK10 (human); compound 0.02 µM) was 3.3%. For the same compound, the inhibition (STK10 (human); compound 0.2 µM) was 36.1%, the inhibition (STK38L (human); compound 0.02 µM) was -3.6% and the inhibition (STK38L (human); compound 0.2 µM) was 4.2%. It also gave an inhibition (WNK3 (human); compound 0.02 µM) of -8%, an inhibition (WNK3 (human); compound 0.2 µM) of 3.9% and an inhibition (ZAP70 (human); compound 0.02 µM) of -17.2%. The inhibition (ZAP70 (human); compound 0.2 µM) was 19.1%.

— the kinase profiling compilation of Christmann-Franck et al. (2016)
